We go through 13 compounds from ChEMBL document CHEMBL4364305, “Medicinal leech antimicrobial peptides lacking toxicity represent a promising alternative strategy to combat antibiotic-resistant pathogens” (Eur J Med Chem, 2019).

Data set [1] relates to Chlamydia trachomatis. Put plainly: Antibacterial activity against Chlamydia trachomatis D/UW-3/Cx infected in mouse McCoy cells assessed as reduction in infected cells preincubated for 2 hrs and measured after 48 hrs by immunofluorescence method. Format: functional.
The subject of data set [2] is Escherichia coli. Put plainly: Antibacterial activity against Escherichia coli MG1655 assessed as reduction in bacterial cell growth incubated for 24 hrs by microtiter dilution method. Format: functional. The following applies: MG1655, 24 h.
Data set [3] concerns Bacillus subtilis. Put plainly: Antibacterial activity against Bacillus subtilis 168 HT assessed as reduction in bacterial cell growth incubated for 24 hrs by microtiter dilution method. Format: functional.
Data set [4] in a line: Cytotoxicity against mouse McCoy cells assessed as cell viability at 0.5 to 4 times of antibacterial MIC incubated for 48 hrs by calcein AM and ethidium homodimer-1 staining based epifluorescence microscopic method relative to control. The following applies: read-out: Activity.
In data set [5] the test system is Escherichia coli. Briefly: Antibacterial activity against Escherichia coli MG1655 assessed as reduction in bacterial cell structural integrity at 0.5 antibacterial MIC incubated for 8 or 24 hrs by scanning electron microscopy. Format: functional, organism-based.
Data set [6] concerns Bacillus subtilis. Put plainly: Antibacterial activity against Bacillus subtilis 168 HT assessed as reduction in bacterial cell structural integrity at 0.5 antibacterial MIC incubated for 8 or 24 hrs by scanning electron microscopy. Format: functional, organism-based.
Data set [7] has as its system Lipid bilayer. Briefly: Disruption of large POPC:POPS unilamellar vesicle membrane assessed as release of carboxyfluorescein measured after 1 min by fluorescence based method.
Data set [8] has as its system Lipid bilayer. Put plainly: Disruption of large POPS unilamellar vesicle membrane assessed as release of carboxyfluorescein measured after 1 min by fluorescence based method.
In data set [9] the test system is Lipid bilayer. Briefly: Disruption of large POPC:DOPG unilamellar vesicle membrane assessed as release of carboxyfluorescein measured after 1 min by fluorescence based method.
Data set [10] concerns Lipid bilayer. Briefly: Disruption of large POPC unilamellar vesicle membrane assessed as release of carboxyfluorescein measured after 1 min by fluorescence based method.
Data set [11] relates to Bacillus subtilis. Put plainly: Induction of morphological changes in Bacillus subtilis 168 HT assessed as cellular debris formation at 0.5 antibacterial MIC incubated for 8 or 24 hrs by scanning electron microscopy. Format: functional, organism-based.
A short description of data set [12]: Hemolytic activity in human Erythrocyte at 100 uM measured after 1 hr relative to control. Format: ADME, cell-based. Particulars: erythrocytes, read-out: Activity.
A short description of data set [13]: Cytotoxicity against mouse McCoy cells assessed as reduction in cell viability at 4 times of antibacterial MIC incubated for 48 hrs by calcein AM and ethidium homodimer-1 staining based epifluorescence microscopic method relative to control.
Data set [14] is described as follows: Hemolytic activity in human Erythrocyte at 50 uM measured after 1 hr relative to control. Format: ADME, cell-based. The following applies: erythrocytes, read-out: Activity.
The nature of data set [15]: Hemolytic activity in human Erythrocyte at 6.25 uM measured after 1 hr relative to control. Format: ADME, cell-based. Particulars: erythrocytes, read-out: Activity.

Values after ≈ are worked out from the molar mass of the structure shown. Active and inactive are the calls of the source. Residues, ends and D or L forms follow the SMILES beside them. A value given as a limit tells only on which side of the number the result lay.

In the case of `CC[C@H](C)[C@H](NC(=O)[C@H](CC(C)C)NC(=O)[C@@H](N)CS)C(=O)N[C@@H](CCSC)C(=O)N[C@@H](CCCCN)C(=O)N[C@H](C(=O)N[C@@H](CCCNC(=N)N)C(=O)N[C@@H](CCCNC(=N)N)C(=O)N[C@@H](CCCCN)C(=O)N[C@@H](CCCCN)C(=O)O)C(C)C` (H-CLIMKVRRKK-OH), the MIC90 – broadly, the lowest concentration that inhibits either 90% of growth or 90% of the strains tested, depending on the study – in data set [1] turned out to be 12.5 µM (≈ 15.9 µg/mL). For the same compound, the minimal inhibitory concentration (MIC) (commonly the smallest concentration in the dilution series that meets the test's criterion for growth inhibition) in data set [2] was 100 µM (≈ 128 µg/mL); in data set [3] it was 12.6 µM (≈ 16.1 µg/mL).
In the case of `CC[C@H](C)[C@H](NC(=O)[C@H](CCCNC(=N)N)NC(=O)[C@H](CCSC)NC(=O)[C@@H](NC(=O)[C@H](CCCNC(=N)N)NC(=O)[C@@H](N)Cc1ccccc1)[C@@H](C)CC)C(=O)N[C@@H](CC(C)C)C(=O)N[C@@H](CCCNC(=N)N)C(=O)N[C@H](C(=O)N[C@@H](CC(C)C)C(=O)N[C@@H](CCCCN)C(=O)N[C@@H](CC(C)C)C(=O)O)C(C)C` (H-FRIMRILRVLKL-OH), the MIC90 in [1] was found to be 3.1 µM (≈ 4.83 µg/mL). In addition, the MIC in [2] and in [3] was 10.3 µM (≈ 16 µg/mL) in each case. Further, in data set [4], the viability at 48 h is 100%. Also, the result in data set [5] and in [6] was Active. Besides, the Activity entry in [7], in data set [8] and in data set [9] was “Dose-dependent effect” each time. Also, the outcome in data set [10] and in data set [11] was inactive.
Take `CC[C@H](C)[C@H](NC(=O)[C@H](CCCCN)NC(=O)[C@H](Cc1ccccc1)NC(=O)[C@H](CCCNC(=N)N)NC(=O)[C@H](CCCCN)NC(=O)[C@@H](NC(=O)[C@@H](NC(=O)[C@H](Cc1ccccc1)NC(=O)CN)[C@@H](C)CC)C(C)C)C(=O)N[C@@H](CC(C)C)C(=O)N[C@H](C(=O)O)C(C)C` (H-GFIVKRFKILV-OH): in [1], the MIC90 was > 100 µM. Also, the values for the MIC in [2] and in data set [3] were > 97 µM and 97 µM (≈ 128 µg/mL), respectively. Besides, the hemolysis at 1 h, 100 µM in data set [12] came to 30%. Besides, the Activity in data set [13] is 100%.
Turning to `CC[C@H](C)[C@H](N)C(=O)N[C@@H](CCCCN)C(=O)N[C@H](C(=O)N[C@H](C(=O)N[C@@H](C)C(=O)N1CCC[C@H]1C(=O)N[C@@H](CCCCN)C(=O)N[C@@H](CCCCN)C(=O)N[C@H](C(=O)N[C@@H](CCCCN)C(=O)N[C@@H](CC(C)C)C(=O)O)[C@@H](C)CC)C(C)C)[C@@H](C)CC` (H-IKIVAPKKIKL-OH), the MIC90 in data set [1] was > 100 µM. The MIC in [2] and in data set [3] was > 102 µM in each case.
Take `CC[C@H](C)[C@H](N)C(=O)N[C@@H](CO)C(=O)N[C@@H](CCCNC(=N)N)C(=O)N[C@@H](C)C(=O)N[C@@H](CS)C(=O)N[C@@H](CC(C)C)C(=O)N[C@H](C(=O)N[C@@H](CCSC)C(=O)N[C@@H](CCCCN)C(=O)N[C@H](C(=O)N[C@@H](CCCNC(=N)N)C(=O)N[C@@H](CCCNC(=N)N)C(=O)N[C@@H](CCCCN)C(=O)N[C@@H](CCCCN)C(=O)O)C(C)C)[C@@H](C)CC` (H-ISRACLIMKVRRKK-OH): the MIC90 in data set [1] was 12.5 µM (≈ 21.3 µg/mL). The minimal inhibitory concentration (MIC) was determined as 37.6 µM (≈ 64 µg/mL) in data set [2] and 9.4 µM (≈ 16 µg/mL) in data set [3].
In the case of `CC[C@H](C)[C@H](NC(=O)[C@@H](NC(=O)[C@H](CCCCN)NC(=O)[C@H](CCCCN)NC(=O)[C@H](Cc1ccccc1)NC(=O)[C@@H](N)CCCCN)C(C)C)C(=O)N[C@@H](Cc1c[nH]c2ccccc12)C(=O)N[C@@H](CCCCN)C(=O)N[C@@H](CO)C(=O)N[C@@H](Cc1ccccc1)C(=O)N[C@@H](CC(C)C)C(=O)O` (H-KFKKVIWKSFL-OH), the MIC90 in data set [1] is 12.5 µM (≈ 17.8 µg/mL). For the same compound, the minimum inhibitory concentration (MIC) in data set [2] was 90 µM (≈ 128 µg/mL); in data set [3] it was 45 µM (≈ 64.1 µg/mL). Further, in data set [14], the hemolysis at 1 h, 50 µM turned out to be 50%. Besides, in [4], the viability at 48 h is 100%.
Consider `CC[C@H](C)[C@H](NC(=O)[C@@H](N)CC(C)C)C(=O)N[C@H](C(=O)N[C@@H](CC(C)C)C(=O)N[C@H](C(=O)N[C@@H](CS)C(=O)N[C@@H](CCCNC(=N)N)C(=O)N[C@@H](CCCCN)C(=O)N[C@@H](CCCCN)C(=O)N[C@@H](CCCCN)C(=O)N[C@@H](CCCCN)C(=O)N1CCC[C@H]1C(=O)N[C@@H](Cc1ccccc1)C(=O)O)[C@@H](C)O)C(C)C` (H-LIVLTCRKKKKPF-OH), for which, in data set [1], the MIC90 worked out at 12.5 µM (≈ 19.7 µg/mL). The MIC in data set [2] is > 81 µM; in data set [3], 40.7 µM (≈ 64.1 µg/mL). The Activity in [13] is given as 100%.
As for `CC[C@H](C)[C@H](NC(=O)CNC(=O)[C@@H](NC(=O)[C@H](CCCCN)NC(=O)[C@@H](NC(=O)CNC(=O)[C@H](CC(C)C)NC(=O)[C@H](Cc1c[nH]c2ccccc12)NC(=O)[C@H](CCCNC(=N)N)NC(=O)[C@@H](N)CC(C)C)[C@@H](C)O)C(C)C)C(=O)N[C@@H](CC(C)C)C(=O)N[C@@H](CCCCN)C(=O)O` (H-LRWLGTKVGILK-OH), the MIC90 in [1] is > 100 µM. Further, the MIC in data set [2] and in data set [3] was > 92 µM in each case.
For `CC[C@H](C)[C@H](NC(=O)[C@@H](NC(=O)[C@H](CCCNC(=N)N)NC(=O)[C@@H](NC(=O)[C@H](CCCNC(=N)N)NC(=O)[C@H](CCCNC(=N)N)NC(=O)[C@@H](NC(=O)[C@H](CCCNC(=N)N)NC(=O)[C@@H](NC(=O)[C@H](CC(C)C)NC(=O)[C@@H](NC(=O)[C@@H]1CCCN1C(=O)[C@@H](N)CCCNC(=N)N)[C@@H](C)CC)[C@@H](C)CC)C(C)C)[C@@H](C)CC)C(C)C)C(=O)O` (H-RPILIRVRRIRVI-OH), the MIC90 in data set [1] is > 100 µM. Also, the values for the minimum inhibitory concentration (MIC) in [2] and in [3] were 77.1 µM (≈ 128 µg/mL) and 9.7 µM (≈ 16.1 µg/mL), respectively. Besides, the Activity result in data set [13] was “Toxic”.
`CC(C)C[C@H](NC(=O)[C@H](Cc1ccccc1)NC(=O)[C@H](CS)NC(=O)[C@@H](NC(=O)[C@H](CC(C)C)NC(=O)[C@H](CCCNC(=N)N)NC(=O)[C@H](Cc1c[nH]c2ccccc12)NC(=O)[C@@H](N)CCCNC(=N)N)C(C)C)C(=O)N[C@@H](CS)C(=O)N[C@@H](CCCNC(=N)N)C(=O)N[C@@H](CCCNC(=N)N)C(=O)N[C@@H](CCCCN)C(=O)N[C@@H](CCCCN)C(=O)N[C@H](C(=O)O)C(C)C` (H-RWRLVCFLCRRKKV-OH): in data set [1], the MIC90 was determined as 6.3 µM (≈ 11.7 µg/mL). The minimum inhibitory concentration (MIC) in data set [2] worked out at 17.2 µM (≈ 32.1 µg/mL); in [3], 8.6 µM (≈ 16 µg/mL). In addition, the hemolysis at 1 h, 100 µM in data set [12] worked out at 30%. Also, the viability at 48 h in data set [4] was 100%. Besides, the outcome in data set [5] and in data set [6] was Active. In addition, the Activity result in [7], in data set [8] and in data set [9] was “Dose-dependent effect” in each case. Further, the result in [10] was inactive.
As to `CC[C@H](C)[C@H](NC(=O)[C@H](CCCCN)NC(=O)[C@@H](N)Cc1c[nH]c2ccccc12)C(=O)N[C@@H](Cc1ccccc1)C(=O)N[C@@H](CCCCN)C(=O)N[C@@H](CC(C)C)C(=O)N[C@@H](CCCCN)C(=O)N[C@@H](CC(C)C)C(=O)N[C@@H](CCCNC(=N)N)C(=O)N[C@@H](CCSC)C(=O)N[C@@H](CC(C)C)C(=O)N[C@@H](Cc1c[nH]c2ccccc12)C(=O)O` (H-WKIFKLKLRMLW-OH), in [1], the MIC90 amounted to 50 µM (≈ 83.1 µg/mL). The MIC in [2] worked out at 77 µM (≈ 128 µg/mL); in data set [3] it was 38.5 µM (≈ 64 µg/mL). The hemolysis at 1 h, 6.25 µM in [15] was 50%.
Consider `CC[C@H](C)[C@H](NC(=O)CNC(=O)[C@H](C)NC(=O)[C@H](Cc1cnc[nH]1)NC(=O)[C@@H](NC(=O)[C@H](CCCCN)NC(=O)[C@H](Cc1ccc(O)cc1)NC(=O)[C@@H]1CCCN1C(=O)[C@@H](NC(=O)[C@H](CC(C)C)NC(=O)[C@H](CCCCN)NC(=O)[C@H](CCCCN)NC(=O)[C@@H](N)Cc1c[nH]c2ccccc12)C(C)C)[C@@H](C)CC)C(=O)O` (H-WKKLVPYKIHAGI-OH), for which the MIC90 in data set [1] was > 100 µM. Also, the MIC in data set [2] and in data set [3] was > 82 µM throughout.
Consider `CC[C@H](C)[C@H](NC(=O)CN)C(=O)NCC(=O)N[C@@H](C)C(=O)N[C@H](C(=O)N[C@@H](CC(C)C)C(=O)N[C@@H](CCCCN)C(=O)N[C@H](C(=O)N[C@@H](CC(C)C)C(=O)N[C@H](C(=O)N[C@H](C(=O)NCC(=O)N[C@@H](CC(C)C)C(=O)N1CCC[C@H]1C(=O)N[C@@H](C)C(=O)N[C@@H](CC(C)C)C(=O)N[C@H](C(=O)N[C@@H](CO)C(=O)N[C@@H](Cc1c[nH]c2ccccc12)C(=O)N[C@H](C(=O)N[C@@H](CCCCN)C(=O)N[C@@H](CCCNC(=N)N)C(=O)N[C@@H](CCCCN)C(=O)N[C@@H](CCCNC(=N)N)C(=O)N[C@@H](CCC(N)=O)C(=O)N[C@@H](CCC(N)=O)C(N)=O)[C@@H](C)CC)[C@@H](C)CC)[C@@H](C)O)[C@@H](C)O)C(C)C)C(C)C` [MELITTIN], for which the MIC90 in [1] is 2 µM (≈ 5.69 µg/mL).
